The assay addresses Echovirus 9. As to the kind of experiment: Inhibitory activity against Echovirus 9 using plaque reduction assay. On the technique in general: Plaque reduction counts the foci of infection that form in a cell layer.

Each structure is given as a SMILES string.

The IC50 is the midpoint of a concentration-inhibition curve. High values mean a need for much substance, low ones inhibition by little substance.

`C[C@H](CCOc1ccc(-c2ccc(Cl)cc2)cc1)CCN1CCN(c2ccncc2)C1=O` [1-[(S)-5-(4'-Chloro-biphenyl-4-yloxy)-3-methyl-pentyl]-3-pyridin-4-yl-imidazolidin-2-one] returned a half-inhibitory concentration (IC50) of more than 25 µM.

(Values after BindingDB's records for doi:10.1016/j.bmcl.2005.06.069 (National Health Research Institutes, 2005).)
